{"source": "patent US12473276B2", "about": "“Compound having neuroprotective effect, preparation method therefor and use thereof” (Shanghai Zhimeng Biopharma, Inc., priority 2019, dated 2025)", "system": "rat focal cerebral ischemia-reperfusion model (Middle cerebral artery occlusion, MCAO)", "assay": "Protective effect on focal cerebral ischemia reperfusion (MCAO) in rats: cerebral infarction area by TTC staining", "type": "in vivo, Sprague Dawley (SD) rat", "settings": "for Cerebral infarction area in rats (%): 2.0 h ischemia then reperfusion, mean ± standard error; for Effect on reducing the cerebral infarct area in model rats compared with the model group (significance): P<0.05 significant; for Compared with the model group, the reduced proportion of cerebral infarction area in the compound group: versus model group of the same test", "method": "Sprague Dawley (SD) rat, male, SPF grade, weight 250-280 g\n• Compounds 04007, 04015, 04041, 04047, 04050 and 04089 • Commercially available edaravone injection, products of Nanjing Simcere dongyuan pharmaceutical Co., Ltd, specifications 10 mg/mL 1.3 Experimental Method 1.3.1 Preparation of Focal Cerebral Ischemia-Reperfusion Model\nThe rat focal cerebral ischemia-reperfusion model (Middle cerebral artery occlusion, MCAO) was prepared by internal carotid artery suture method. Rats were injected intraperitoneally with 7% chloral hydrate (6.0 mL/kg), and the depth of anesthesia was appropriate for severe stimulation of animals with slight reaction. The anesthetized rats were tightened with rubber bands on the limbs (the hind limbs were fixed above the knee joint, and the forelimbs were fixed above the wrist joint) and the head, and the animals were fixed on the operating table in the supine position, and the animal shaver was used from the head end to the chest to shave hair, and the skin was disinfected with alcohol. The neck was cut in the middle and the subcutaneous tissue was blunt separated. […] The arterial shell was opened, the right carotid bifurcation was exposed, and the right common carotid artery, external carotid artery, internal carotid artery were separated, the vagus nerve was gently peeled off, the external carotid artery was ligated and cut off. The end of the common carotid artery proximity to the heart was clamped, and an incision was made from the distal end of the ligature line of the external carotid artery, suture was inserted and entered into the internal carotid artery through the bifurcation of the common carotid artery, and then slowly inserted until there was slight resistance (about 20 mm from the bifurcation), all blood supply of the middle cerebral artery was blocked. The suture was slightly fixed with the silk under the incision of the external carotid artery, the clamping silk at the end of the common carotid artery proximity to the heart was loosen, the wound surface was covered with gauze soaked with disinfected normal saline, and the rats were kept warm by placing on the heat preservation mat. After right cerebral ischemia for 2.0 h, the suture was gently pulled out, blood supply was restored for reperfusion, the external carotid artery was ligated with the silk fixing the suture, the skin was sutured, and disinfected.\nThe experimental animals were divided into model group, edaravone group (6 mg/kg) and compound to be tested group (5 mg/kg ration of compound to be tested: 5% DMAC+5% Solutol HS 15+90% Saline were used to prepare a solution with a concentration of 1 mg/mL.\nAfter the ischemia model was prepared, the animals were assigned to each group in a single blind with equal probability. The animals were administered intravenously once immediately after reperfusion, and the animals in the model group were given the same volume of normal saline. The animals were sacrificed 24 hours after ischemia, the brain was taken, stained and photographed to determine the area of cerebral infarction.\nThe degree of cerebral infarction was determined by TTC, staining. After the evaluation of the symptoms of neurological defects in animals was completed, the animals were killed with CO2, the brain was taken by decapitation, the olfactory bulb, cerebellum and low brainstem were removed, blood stains on the surface of the brain were washed with normal saline, residual water stains on the surface were sucked out, and placed at −20° C. for 20 min. Immediately after taking out, the coronal section was made vertically downward at the intersection plane of the line of sight, and cut a slice every 2 mm backwards, the brain slices were incubated in 1% TTC dye solution (37° C. for 20 min). The normal brain tissue was dyed crimson, while the ischemic brain tissue was pale. […]", "key": {"[1]": {"settings": "compound 5 mg/kg intravenously once immediately after reperfusion, measured 24 hours after ischemia"}, "[2]": {"settings": "compound 5 mg/kg versus edaravone 6 mg/kg"}}, "note": "Values joined by “and” are separate entries in the source; they are usually repeats but may differ in a detail not shown here. Equal values may be shown once.", "data": [{"smiles": "CCOC(=O)c1ccc(Cn2c(=S)oc3c(Cl)cc(Cl)cc32)cc1O", "note": "[Compound 04041]", "values": [{"measurement": "Cerebral infarction area in rats (%)", "setting": "[1]", "value": "30.37 ± 4.36", "unit": "%"}, {"measurement": "Effect on reducing the cerebral infarct area in model rats compared with the model group (significance)", "setting": "compound 5 mg/kg i.v.", "value": "significantly reduce the cerebral infarct area"}, {"measurement": "Compared with the model group, the reduced proportion of cerebral infarction area in the compound group", "setting": "compound 5 mg/kg i.v.", "value": 37, "unit": "%"}, {"measurement": "Efficacy compared with the positive control drug edaravone group", "setting": "[2]", "value": "equivalent or better efficacy"}]}, {"smiles": "CC1=NN(c2ccccc2)C(=O)C1", "note": "[edaravone, reference compound]", "values": [{"measurement": "Cerebral infarction area of rats in edaravone group in the same test(%)", "setting": "edaravone 6 mg/kg intravenously once immediately after reperfusion, measured 24 hours after ischemia, one value per test run", "value": "32.08% and 27.44% and 28.47% and 32.45%"}]}, {"smiles": "CC(C)OC(=O)c1ccc(N2COc3c(Cl)cc(Cl)cc3C2)cn1", "note": "[Compound 04047]", "values": [{"measurement": "Cerebral infarction area in rats (%)", "setting": "[1]", "value": "35.47 ± 5.34", "unit": "%"}, {"measurement": "Effect on reducing the cerebral infarct area in model rats compared with the model group (significance)", "setting": "compound 5 mg/kg i.v.", "value": "no significant effect on reducing the cerebral infarct area"}, {"measurement": "Compared with the model group, the reduced proportion of cerebral infarction area in the compound group", "setting": "compound 5 mg/kg i.v.", "value": 15, "unit": "%"}]}, {"smiles": "C#CCCOC(=O)c1ccc(N2Cc3cc(Cl)cc(Cl)c3OC2=S)cn1", "note": "[Compound 04050]", "values": [{"measurement": "Cerebral infarction area in rats (%)", "setting": "[1]", "value": "30.97 ± 4.33", "unit": "%"}, {"measurement": "Effect on reducing the cerebral infarct area in model rats compared with the model group (significance)", "setting": "compound 5 mg/kg i.v.", "value": "significantly reduce the cerebral infarct area"}, {"measurement": "Compared with the model group, the reduced proportion of cerebral infarction area in the compound group", "setting": "compound 5 mg/kg i.v.", "value": 26, "unit": "%"}, {"measurement": "Efficacy compared with the positive control drug edaravone group", "setting": "[2]", "value": "equivalent or better efficacy"}]}, {"smiles": "CCOCCOC(=O)c1ccc(N2Cc3cc(Cl)cc(Cl)c3OC2=S)cn1", "note": "[Compound 04089]", "values": [{"measurement": "Cerebral infarction area in rats (%)", "setting": "compound 0.5 mg/kg intravenously once immediately after reperfusion, measured 24 hours after ischemia", "value": "27.80 ± 2.22", "unit": "%"}, {"measurement": "Effect on reducing the cerebral infarct area in model rats compared with the model group (significance)", "setting": "compound 0.5 mg/kg i.v.", "value": "significantly reduce the cerebral infarct area"}, {"measurement": "Compared with the model group, the reduced proportion of cerebral infarction area in the compound group", "setting": "compound 0.5 mg/kg i.v.", "value": 34, "unit": "%"}, {"measurement": "Efficacy compared with the positive control drug edaravone group", "setting": "compound 0.5 mg/kg versus edaravone 6 mg/kg", "value": "equivalent or better efficacy"}]}, {"smiles": "CN1CC(OC(=O)c2ccc(N3Cc4cc(Cl)cc(Cl)c4OC3=S)cn2)C1", "note": "[Compound 04007]", "values": [{"measurement": "Cerebral infarction area in rats (%)", "setting": "[1]", "value": "35.41 ± 3.71", "unit": "%"}, {"measurement": "Effect on reducing the cerebral infarct area in model rats compared with the model group (significance)", "setting": "compound 5 mg/kg i.v.", "value": "significantly reduce the cerebral infarct area"}, {"measurement": "Compared with the model group, the reduced proportion of cerebral infarction area in the compound group", "setting": "compound 5 mg/kg i.v.", "value": 26, "unit": "%"}, {"measurement": "Efficacy compared with the positive control drug edaravone group", "setting": "[2]", "value": "equivalent or better efficacy"}]}]}
